Assay results: ChEMBL document CHEMBL1150531, “Acetylcholinesterase inhibition by fused dihydroquinazoline compounds” (Bioorg Med Chem Lett, 1996)

Columns and labels:
Acetylcholinesterase [1] = molecular target: T1, Acetylcholinesterase (Rattus norvegicus, UniProt P37136)
T1 sequence (P37136 whole entry): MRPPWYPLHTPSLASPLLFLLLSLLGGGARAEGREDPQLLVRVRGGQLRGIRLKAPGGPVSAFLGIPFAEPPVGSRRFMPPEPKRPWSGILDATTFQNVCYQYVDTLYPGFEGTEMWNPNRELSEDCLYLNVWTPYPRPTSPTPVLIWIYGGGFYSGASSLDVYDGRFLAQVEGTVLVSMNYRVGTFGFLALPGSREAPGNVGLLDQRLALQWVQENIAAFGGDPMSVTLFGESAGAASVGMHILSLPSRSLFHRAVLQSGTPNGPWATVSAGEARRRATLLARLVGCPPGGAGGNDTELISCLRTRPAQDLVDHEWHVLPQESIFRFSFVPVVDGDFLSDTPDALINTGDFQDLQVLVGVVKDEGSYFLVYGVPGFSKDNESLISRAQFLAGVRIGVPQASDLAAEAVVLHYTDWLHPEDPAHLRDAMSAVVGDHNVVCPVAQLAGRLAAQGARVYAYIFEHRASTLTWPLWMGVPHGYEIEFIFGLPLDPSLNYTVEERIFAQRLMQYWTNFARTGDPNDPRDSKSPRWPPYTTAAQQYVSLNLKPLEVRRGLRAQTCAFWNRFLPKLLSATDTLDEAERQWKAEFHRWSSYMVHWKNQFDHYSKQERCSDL
Description: Inhibitory activity against acetylcholinesterase in rat brain

Acetylcholinesterase [2] = molecular target: Acetylcholinesterase (Homo sapiens, UniProt P22303)
Sequence of Acetylcholinesterase (Homo sapiens, UniProt P22303) (P22303 whole entry): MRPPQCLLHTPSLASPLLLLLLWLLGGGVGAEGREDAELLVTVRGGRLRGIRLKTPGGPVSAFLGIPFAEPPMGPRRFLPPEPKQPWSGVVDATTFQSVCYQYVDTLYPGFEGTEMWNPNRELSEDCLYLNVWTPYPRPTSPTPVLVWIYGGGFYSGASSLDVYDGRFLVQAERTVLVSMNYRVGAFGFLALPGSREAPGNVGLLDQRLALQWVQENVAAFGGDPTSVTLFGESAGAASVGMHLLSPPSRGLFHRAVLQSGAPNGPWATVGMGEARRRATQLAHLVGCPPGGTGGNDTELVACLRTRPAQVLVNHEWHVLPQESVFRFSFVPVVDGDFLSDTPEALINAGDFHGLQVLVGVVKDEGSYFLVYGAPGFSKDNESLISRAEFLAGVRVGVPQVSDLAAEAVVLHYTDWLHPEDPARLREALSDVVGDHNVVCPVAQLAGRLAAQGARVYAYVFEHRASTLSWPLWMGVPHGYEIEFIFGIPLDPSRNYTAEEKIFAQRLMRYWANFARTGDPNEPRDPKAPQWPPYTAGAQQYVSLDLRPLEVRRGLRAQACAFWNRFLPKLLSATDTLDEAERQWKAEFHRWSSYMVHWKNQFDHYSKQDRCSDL
Description: Inhibitory activity against acetylcholinesterase in human RBC

Row | SMILES | IC50 (Acetylcholinesterase [1]) | IC50 (Acetylcholinesterase [2])
1 | c1ccc2c(c1)CN1CCCCCCCC1=N2 | > 100 µM | 13.5 µM
2 | C/C=C1\[C@H]2C=C(C)C[C@]1(N)c1ccc(=O)[nH]c1C2 [HUPERZINE A] | 0.094 µM | –
3 | c1ccc2c(c1)CN1CCCC1=N2 | 18 µM | 3.72 µM
4 | c1ccc2c(c1)CN1CCCCCCC1=N2 | 100 µM | 9.2 µM
5 | c1ccc2c(c1)CN1CCCCCC1=N2 | 15 µM | 3.76 µM
6 | Clc1cccc2c1CN1CCCCCC1=N2 | 4.75 µM | –
7 | O=c1c2ccc(Cl)cc2nc2n1CCCCC2 | > 100 µM | > 100 µM
8 | N=c1c2ccc(Cl)cc2nc2n1CCCCC2 | 35.9 µM | –
9 | c1ccc2c(c1)CN1CCCCC1=N2 | > 100 µM | 3.66 µM
10 | Clc1ccc2c(c1)CN1CCCCCC1=N2 | 9.3 µM | –
11 | CCCCCCCNC(=O)Oc1ccc2c(c1)[C@]1(C)CCN(C)[C@@H]1N2C [EPTASTIGMINE] | 0.6 µM | 0.125 µM
12 | S=c1c2ccc(Cl)cc2nc2n1CCCCC2 | > 100 µM | > 100 µM
